Assay [1] deals with ABCA1 protein. Nature of the assay: ABCA1 protein level in mouse peritoneal macrophages (Western). It is filed as cell-based. The note with it: for ABCA1 protein level, effect in words: mouse peritoneal macrophages, 3 hours, apoA-I 10 μg/ml, HDL2 50 μg protein/ml, MβCD 1 mM 5 min, apigenin 40 μM. How it is done:
Cellular lipid efflux assays, apoA-I cell association, and chemical cross-linking: The assays were carried out as in (14). Generally, 293 cells were labeled by culturing overnight in media containing either [^3H]cholesterol, for cholesterol efflux, or [^3H]choline, for phospholipid efflux. The next day, cells were washed with fresh media before or after treatment as indicated, and then apoA-I was added as acceptor and incubated for the indicated period before the media and cells were collected for analysis. Mouse peritoneal macrophage cells were isolated from male mice by peritoneal lavage with PBS 3 days after intraperitoneal injection with 1 ml of 3.85% thioglycollate. The cells were labeled with […] [^3H]cholesterol overnight in DMEM and 0.2% BSA supplemented with 50 μg/ml acetylated LDL plus LXR/RXR ligands 22(R)-hydroxycholesterol and 9-cis retinoic acid (both 10 μM). After labeling, cells were washed and efflux was carried out with 10 μg/ml apoA-I for 3 hours. Then, cells and medium were collected for analysis. Cholesterol efflux was expressed as the percentage of the radioactivity released from the cells into the medium, relative to the total radioactivity in cells plus medium. For apoA-I cell association, cells were incubated with 0.2 μg/ml [^125 I]apoA-I in 0.2% BSA and DMEM for 1 hour at 37° C. After being washed three times with fresh media, cells were lysed with 0.1% SDS and 0.1N NaOH lysis buffer, and radioactivity was determined by a gamma counter.
(§1) Immunoprecipitation and immunoblot analysis of ABCA1: For immunoblot analysis of ABCA1, ABCA1-FLAG, and ABCA1delPEST-FLAG, transfected HEK293 cells, peritoneal macrophages, or primary hepatocytes were washed and scraped in PBS and lysed in RIPA buffer (10 mM Tris-HCl [pH 7.3], 1 mM MgCl2, 1.0% Nonidet P-40, 0.5% sodium deoxycholate, and 5 mM EDTA in the presence of protease inhibitors as follows: 0.5 μg/ml leupeptin, 1 μg/ml aprotinin, and 1 μg/ml pepstatin A) (Roche Molecular Biochemicals, Indianapolis, Ind., USA). Postnuclear supernatants containing the indicated amounts of protein were subjected to Western analysis using an anti-ABCA1 antiserum or anti-FLAG M2 antibody and chemiluminescence detection. The relative intensities of the bands were determined by densitometry. For cell surface ABCA1 analysis, cells were first biotinylated with 0.5 mg/ml EZ-Link Sulfo-NHS-SS-Biotin (Pierce Chemical Co., Rockford, Ill., USA) at 4° C. for 30 minutes. Then cells were lysed with RIPA buffer at 4° C. After centrifugation, the supernatant of cell lysates was incubated with anti-FLAG agarose beads overnight at 4° C. Following centrifugation and washing, the collected agarose beads were subjected to SDS-PAGE sample buffer with 100 mM 2-mercaptoethanol. The total or […] ABCA1 was detected by Western blot using either anti-FLAG antibody or streptavidin-horseradish peroxidase.

Assay [2] has as its system ABCA1 phosphorylation. Nature of the assay: Phosphorylation of ABCA1 in cells. In kind it is cell-based.
The subject of assay [3] is ABCA1 protein. Nature of the assay: ABCA1 protein turnover and level in transiently transfected 293 cells (metabolic labeling, Western, cell surface biotinylation). In kind it is cell-based, human.
Source text: Plasmid constructs and cell transfection: ABCA1-FLAG was constructed as described (18). ABCA1delPEST was based on ABCA1-FLAG. Using PCR, ABCA1delPEST was constructed by deleting a nucleotide sequence that encodes mouse ABCA1 amino acids 1283-1306 and was confirmed by sequencing. HEK293 cells, in 12- or 24-well collagen-coated plates, were transiently transfected with various plasmid constructs at indicated DNA concentrations with Lipofectamine 2000 (Invitrogen Corp., San Diego, Calif., USA) at 37° C. overnight (20 hours). A construct expressing green fluorescence protein (GFP) was routinely used to visually monitor transfection efficiency (i.e., the percentage of cells expressing GFP). The transfection efficiency of 293 cells was in the range of 50-80% of cells. […] In addition to performing multiple replicates within each experiment, all experiments were repeated on multiple separate occasions to confirm reproducibility of results.
as §1

Assay [4] relates to ABCA1. To be noted: macrophages loaded with acetyl-LDL and cholesterol ester; cited from earlier work.
Assay [5] has as its system ABCA1 protein. Description: ABCA1 protein level in mouse peritoneal macrophages (Western). It is filed as cell-based. The note with it: cultured cells, short-term incubations, data not shown.
The subject of assay [6] is ABCA1 protein. Description: ABCA1 protein level in primary mouse hepatocytes (Western). To be noted: apoA-I 10 μg/ml 3 hours. In kind it is cell-based. On the procedure:
as §1, with “peroxidase. […]” for “peroxidase.”

Assay [7] concerns calpain protease. Nature of the assay: Degradation of a fluorescent calpain protease substrate in cells. In kind it is cell-based. The note with it: data not shown.
For assay [8], the target named is T1, ABCA1 (Mus musculus, UniProt P41233). Nature of the assay: Calpain-catalyzed proteolysis of metabolically labeled ABCA1 in digitonin-permeabilized 293 cells. It is filed as cell-based. Set-up: expressed in transfected cells; host or cells: 293 cells, digitonin-permeabilized. On the procedure: (§2) Calpain-catalyzed proteolysis of metabolically labeled ABCA1: Transiently transfected 293 cells were pulse-labeled by [^35S]methionine (0.5 mCi/ml) in 0.2% BSA and DMEM for 2 hours. Cells were washed three times with fresh media and placed on ice for 10 minutes. Then cells were permeabilized by addition of 80 μg/ml digitonin in DMEM and incubated on ice for 15 minutes. Next, the cells were washed twice with fresh DMEM, and then purified μ-calpain in DMEM plus 2 mM CaCl2 was added at the indicated concentration and incubated for 20 minutes at room temperature. Then cells were lysed by addition of 1 ml RIPA buffer with 40 μg/ml calpeptin. FLAG-tagged ABCA1 was immunoprecipitated by anti-FLAG agarose beads and subjected to quantitative analysis by PhosphorImager.

Assay [9] deals with T1, ABCA1. Nature of the assay: Apolipoprotein A-I infusion in mice, ABCA1 in liver and peritoneal macrophages. In kind it is in vivo. Further details: from tissue; host or cells: mouse liver and peritoneal macrophages. On the procedure:
[…] Mice were anesthetized intraperitoneally with 0.1 ml/30 g body weight of a solution containing 100 mg/ml ketamine and 30 mg/ml xylazine. ApoA-I (20 mg/kg body weight) or BSA as control was administered via femoral vein as a bolus injection. Four hours after injection, animals were euthanized and the liver was dissected out for analysis.

In assay [10] the target is T2, ABCA1 (Mus musculus, UniProt P41233, DEL1283-1306).
T2 construct: expressed in transfected cells; host or cells: 293 cells, digitonin-permeabilized
Description: Calpain-catalyzed proteolysis of metabolically labeled ABCA1 in digitonin-permeabilized 293 cells. In kind it is cell-based. The note with it: permeabilized 293 cells, purified μ-calpain. On the procedure: as §2

Setting [11] is: 293 cells, lactacystin 20 μM for 3 h.
The mark [12] stands for this setting: 293 cells, apoA-I 10 μg/ml 3 hours.
[13] abbreviates: time-course study of apoA-I infusion.

The values that follow come from patent US20040096851A1, “ABCA1 PEST domain-related compositions and methods” (priority 2002, published 2004).

T1 sequence (P41233 whole entry): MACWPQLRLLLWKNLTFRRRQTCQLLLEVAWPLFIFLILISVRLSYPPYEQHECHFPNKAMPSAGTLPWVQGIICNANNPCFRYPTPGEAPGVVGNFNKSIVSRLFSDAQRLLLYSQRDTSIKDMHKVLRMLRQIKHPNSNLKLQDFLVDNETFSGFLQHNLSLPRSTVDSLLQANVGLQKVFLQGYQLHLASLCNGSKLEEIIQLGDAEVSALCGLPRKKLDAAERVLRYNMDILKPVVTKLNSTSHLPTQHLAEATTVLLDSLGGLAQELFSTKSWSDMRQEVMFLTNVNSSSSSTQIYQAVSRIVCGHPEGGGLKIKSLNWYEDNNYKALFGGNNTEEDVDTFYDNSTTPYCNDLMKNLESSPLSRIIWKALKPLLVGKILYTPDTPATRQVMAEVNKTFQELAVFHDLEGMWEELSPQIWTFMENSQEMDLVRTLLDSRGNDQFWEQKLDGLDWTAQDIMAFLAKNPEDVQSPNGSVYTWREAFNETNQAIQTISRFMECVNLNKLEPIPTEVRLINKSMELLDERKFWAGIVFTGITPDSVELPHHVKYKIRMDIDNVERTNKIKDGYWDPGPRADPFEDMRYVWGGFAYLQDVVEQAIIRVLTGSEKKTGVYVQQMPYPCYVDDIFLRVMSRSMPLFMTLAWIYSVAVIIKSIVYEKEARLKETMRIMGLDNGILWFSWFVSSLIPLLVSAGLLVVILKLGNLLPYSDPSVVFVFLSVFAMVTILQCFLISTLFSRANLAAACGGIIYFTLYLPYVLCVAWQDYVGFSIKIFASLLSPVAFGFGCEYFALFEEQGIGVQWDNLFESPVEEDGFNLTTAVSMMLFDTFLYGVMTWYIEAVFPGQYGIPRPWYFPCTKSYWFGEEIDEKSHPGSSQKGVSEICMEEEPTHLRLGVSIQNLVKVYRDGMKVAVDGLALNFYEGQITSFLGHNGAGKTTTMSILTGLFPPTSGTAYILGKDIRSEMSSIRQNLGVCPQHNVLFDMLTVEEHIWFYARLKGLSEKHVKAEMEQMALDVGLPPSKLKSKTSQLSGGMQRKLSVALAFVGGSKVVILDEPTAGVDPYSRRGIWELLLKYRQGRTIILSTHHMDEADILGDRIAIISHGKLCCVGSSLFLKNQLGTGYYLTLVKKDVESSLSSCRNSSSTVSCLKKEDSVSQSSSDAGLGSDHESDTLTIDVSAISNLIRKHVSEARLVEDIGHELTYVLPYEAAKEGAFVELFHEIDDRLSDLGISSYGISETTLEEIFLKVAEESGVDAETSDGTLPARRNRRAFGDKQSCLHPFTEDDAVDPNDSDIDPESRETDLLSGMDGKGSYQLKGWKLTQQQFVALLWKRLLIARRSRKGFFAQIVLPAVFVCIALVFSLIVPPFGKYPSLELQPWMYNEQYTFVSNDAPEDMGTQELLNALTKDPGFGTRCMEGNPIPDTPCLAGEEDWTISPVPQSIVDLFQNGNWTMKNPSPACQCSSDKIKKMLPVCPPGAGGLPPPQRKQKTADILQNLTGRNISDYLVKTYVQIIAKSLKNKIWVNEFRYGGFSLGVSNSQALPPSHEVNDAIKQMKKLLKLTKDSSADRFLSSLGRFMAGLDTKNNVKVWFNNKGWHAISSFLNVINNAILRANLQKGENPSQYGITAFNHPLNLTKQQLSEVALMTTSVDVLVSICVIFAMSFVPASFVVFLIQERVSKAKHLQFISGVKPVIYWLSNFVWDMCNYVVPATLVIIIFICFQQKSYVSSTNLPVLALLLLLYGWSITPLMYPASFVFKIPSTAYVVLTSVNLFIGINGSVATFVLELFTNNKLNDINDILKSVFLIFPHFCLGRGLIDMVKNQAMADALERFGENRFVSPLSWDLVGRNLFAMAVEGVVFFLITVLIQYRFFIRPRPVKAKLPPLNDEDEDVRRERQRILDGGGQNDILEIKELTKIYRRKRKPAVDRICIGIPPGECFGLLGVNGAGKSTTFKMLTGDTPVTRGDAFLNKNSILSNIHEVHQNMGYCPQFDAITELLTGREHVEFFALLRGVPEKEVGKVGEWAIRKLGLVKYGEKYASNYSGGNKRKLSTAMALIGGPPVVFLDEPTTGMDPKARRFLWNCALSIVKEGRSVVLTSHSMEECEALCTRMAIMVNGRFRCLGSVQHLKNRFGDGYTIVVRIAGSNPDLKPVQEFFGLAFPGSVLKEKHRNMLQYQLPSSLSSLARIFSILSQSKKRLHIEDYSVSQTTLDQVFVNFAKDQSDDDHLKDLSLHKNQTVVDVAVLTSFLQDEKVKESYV
T2 sequence (P41233 with tags, fused parts or gaps DEL1283-1306): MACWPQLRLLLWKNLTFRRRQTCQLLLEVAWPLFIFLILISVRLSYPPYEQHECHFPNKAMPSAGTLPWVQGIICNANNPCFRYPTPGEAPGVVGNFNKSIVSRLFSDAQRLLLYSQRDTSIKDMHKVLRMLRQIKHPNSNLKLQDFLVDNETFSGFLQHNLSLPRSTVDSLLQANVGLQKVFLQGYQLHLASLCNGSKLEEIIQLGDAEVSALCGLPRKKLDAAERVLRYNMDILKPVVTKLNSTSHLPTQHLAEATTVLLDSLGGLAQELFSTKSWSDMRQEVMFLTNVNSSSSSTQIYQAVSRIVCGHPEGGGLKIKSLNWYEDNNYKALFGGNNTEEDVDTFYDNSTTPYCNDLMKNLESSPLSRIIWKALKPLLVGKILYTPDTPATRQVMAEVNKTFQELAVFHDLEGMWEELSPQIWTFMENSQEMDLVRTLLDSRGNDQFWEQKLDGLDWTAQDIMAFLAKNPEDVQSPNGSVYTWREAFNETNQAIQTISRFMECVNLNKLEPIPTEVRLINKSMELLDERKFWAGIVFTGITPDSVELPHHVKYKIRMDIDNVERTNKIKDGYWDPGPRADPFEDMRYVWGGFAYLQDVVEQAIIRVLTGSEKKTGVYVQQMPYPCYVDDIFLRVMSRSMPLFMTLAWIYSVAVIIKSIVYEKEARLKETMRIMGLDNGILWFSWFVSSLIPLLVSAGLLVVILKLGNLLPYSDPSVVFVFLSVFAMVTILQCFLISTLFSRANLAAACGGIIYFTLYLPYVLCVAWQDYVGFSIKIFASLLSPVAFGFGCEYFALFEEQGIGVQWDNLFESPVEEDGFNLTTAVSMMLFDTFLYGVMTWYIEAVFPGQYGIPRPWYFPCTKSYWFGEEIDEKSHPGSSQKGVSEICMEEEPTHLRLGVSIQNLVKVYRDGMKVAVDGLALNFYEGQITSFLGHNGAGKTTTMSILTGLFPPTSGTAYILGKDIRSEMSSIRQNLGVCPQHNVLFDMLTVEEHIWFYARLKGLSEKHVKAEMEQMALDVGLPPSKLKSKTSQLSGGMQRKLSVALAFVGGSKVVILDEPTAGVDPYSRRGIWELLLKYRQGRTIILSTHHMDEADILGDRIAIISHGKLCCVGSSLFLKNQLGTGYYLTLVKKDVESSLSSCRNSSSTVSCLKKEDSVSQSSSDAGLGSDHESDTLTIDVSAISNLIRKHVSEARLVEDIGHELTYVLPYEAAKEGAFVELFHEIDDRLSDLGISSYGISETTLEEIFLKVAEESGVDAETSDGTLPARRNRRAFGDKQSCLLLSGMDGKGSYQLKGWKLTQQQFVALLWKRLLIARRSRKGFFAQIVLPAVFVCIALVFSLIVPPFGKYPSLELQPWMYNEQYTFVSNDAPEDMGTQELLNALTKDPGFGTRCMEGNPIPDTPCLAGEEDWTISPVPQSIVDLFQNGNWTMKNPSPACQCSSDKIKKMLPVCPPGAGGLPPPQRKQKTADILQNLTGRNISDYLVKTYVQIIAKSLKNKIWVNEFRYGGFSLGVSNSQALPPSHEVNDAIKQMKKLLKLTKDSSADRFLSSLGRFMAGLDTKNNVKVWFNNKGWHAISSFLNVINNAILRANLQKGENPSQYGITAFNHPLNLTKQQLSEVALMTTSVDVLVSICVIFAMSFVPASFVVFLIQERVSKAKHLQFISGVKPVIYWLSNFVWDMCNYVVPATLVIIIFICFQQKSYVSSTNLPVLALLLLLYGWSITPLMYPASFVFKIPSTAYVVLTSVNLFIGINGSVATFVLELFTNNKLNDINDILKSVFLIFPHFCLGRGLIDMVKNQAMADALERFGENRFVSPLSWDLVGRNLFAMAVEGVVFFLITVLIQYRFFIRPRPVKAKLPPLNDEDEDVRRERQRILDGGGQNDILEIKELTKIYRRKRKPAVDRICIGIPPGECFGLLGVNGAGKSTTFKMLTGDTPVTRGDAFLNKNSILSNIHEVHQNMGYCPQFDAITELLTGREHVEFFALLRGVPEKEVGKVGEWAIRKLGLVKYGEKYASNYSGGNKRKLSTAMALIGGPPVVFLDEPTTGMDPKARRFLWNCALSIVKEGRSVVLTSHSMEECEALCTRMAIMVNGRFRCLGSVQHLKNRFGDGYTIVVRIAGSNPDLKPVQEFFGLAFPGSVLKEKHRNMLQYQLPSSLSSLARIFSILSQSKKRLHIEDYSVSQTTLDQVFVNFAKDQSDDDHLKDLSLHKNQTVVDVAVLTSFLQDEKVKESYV

For the molecule methy-β-cyclodextrin, the “ABCA1 protein level, effect in words” value in assay [1] is reported as “no effect”.
For the molecule apoE: apoprotein ligand of ABCA1, the “effect on ABCA1 in primary macrophage cultures” value in assay [1] was “stabilization”.
For `O=c1cc(-c2ccc(O)cc2)oc2cc(O)cc(O)c12` [apigenin, reference compound], the “ABCA1 protein level, effect in words” value in assay [1] was “increase”. Also, in assay [2], the “phosphorylation of ABCA1” value is recorded as “decrease”.
Turning to `CC(=O)N[C@@H](CSC(=O)[C@]1([C@@H](O)C(C)C)NC(=O)[C@H](C)[C@@H]1O)C(=O)O` [lactacystin], the “accumulation of total and cell surface ubiquitinated ABCA1” value in assay [3] (setting [11]) is “increase in the accumulation”. Moreover, the “increase in total ABCA1 levels” value in assay [3] (setting [11]) stood at 2.2 fold. Further, the “increase in cell surface ABCA1 levels” value in [3] (293 cells, lactacystin, data not shown) came to 2.2 fold. For the same molecule, the ABCA1 level result is given as “increased” in assay [1] (acetyl-LDL-loaded, LXR/RXR-activated macrophages, data not shown) and “increased” in [4].
Consider `CCCC[C@@H](C=O)NC(=O)[C@H](CC(C)C)NC(=O)OCc1ccccc1` [calpeptin], for which the “effect of calpeptin on ABCA1delPEST (PEST sequence deleted)” value in assay [3] (293 cells, calpeptin 30 μg/ml for 3 hours) is “abolished”. Besides, the “mean increase in ABCA1 protein levels” value in assay [3] (293 cells, calpeptin 30 μg/ml for 3 hours, p<0.001) was found to be 3.84±0.32 fold. Besides, in assay [3] (calpeptin), the “cell surface ABCA1, effect in words” value is listed as “marked increase”. Further, the “ABCA1 protein level, effect in words” value in [1] and in [6] was “increased” throughout. Moreover, the “ABCA1 mRNA” value in assay [5] is “without any change”.
“apoA-I: Human apoA-I (BIODESIGN International), dialyzed against PBS; apolipoprotein ligand of ABCA1”: in [3] (setting [12]), the “cellular expression levels of ABCA1delPEST” value is recorded as “no effect” and the “protein levels of Walker motif mutant ABCA1” value is “no increase”. Also, the “ABCA1 protein level, effect in words” value in assay [3] (293 cells, wild type ABCA1, apoA-I 10 μg/ml 3 hours) is “rapid, marked increase”. The “level of ABCA1-W590S mutant” value in assay [3] (mutant binds apoA-I but does not mediate lipid efflux, data not shown) is on record as “fails to increase”. The “ubiquitination levels of ABCA1” value in assay [3] (with or without proteasome inhibitors, data not shown) is “did not decrease”. The “cell surface expression of ABCA1” value in assay [1] (macrophages, 3 hours apoA-I, biotinylation) is reported as “increased”. In assay [1], the “ABCA1 protein level, effect in words” value was “rapid, marked increase” and the “effect on ABCA1 in primary macrophage cultures” value was “stabilization”. The “degradation of fluorescent calpain protease substrate” value in [7] is given as “no change”. Further, the “phosphorylation of ABCA1” value in assay [2] was “time- and dose-dependent reduction”. In addition, the “ability of calpain to mediate proteolysis of ABCA1 after pre-treatment” value in [8] (apoA-I 10 μg/ml for 3 hours prior to permeabilization) is “abolished”. Also, the “ABCA1 mRNA” value in [5] is on record as “did not change”. The “ABCA1 protein in liver” value in [9] (mice, intravenous apoA-I 20 mg/kg, 4 hours, chow-fed) is on record as “induction”. Further, the “ABCA1 protein in peritoneal macrophages” value in assay [9] (mice, intravenous apoA-I, 4 hours, high-fat, high-cholesterol diet for 7 days) was “induction”. Also, the “ABCA1 mRNA levels in liver” value in assay [9] (quantitative real-time PCR, data not shown) is “did not significantly alter”. In assay [9] (setting [13]), the “ABCA1 protein levels after 24 hours” value is “returned to base line” and the “time for which the increase in ABCA1 was sustained” value was 8 h. Moreover, the “ABCA1 protein level, effect in words” value in assay [6] is on record as “rapid, marked increase”.
Turning to `C=C1[C@@H](O)[C@@H]2O[C@]3(CC[C@H](/C=C/[C@@H](C)[C@@H]4CC(C)=C[C@@]5(O[C@H](C[C@@](C)(O)C(=O)O)CC[C@H]5O)O4)O3)CC[C@H]2O[C@@H]1[C@@H](O)C[C@H](C)[C@H]1O[C@@]2(CCCCO2)CC[C@H]1C` [okadaic acid], the “ability of apoA-I to increase ABCA1 protein levels” value in assay [1] (macrophages) was “abolished”.

B1: μ-calpain: Purified μ-calpain protease from Calbiochem-Novabiochem (protein, UniProt P07384 2-714; P04632 1-268, looked up)
Calpain-1 catalytic subunit: SEEIITPVYCTGVSAQVQKQRARELGLGRHENAIKYLGQDYEQLRVRCLQSGTLFRDEAFPPVPQSLGYKDLGPNSSKTYGIKWKRPTELLSNPQFIVDGATRTDICQGALGDCWLLAAIASLTLNDTLLHRVVPHGQSFQNGYAGIFHFQLWQFGEWVDVVVDDLLPIKDGKLVFVHSAEGNEFWSALLEKAYAKVNGSYEALSGGSTSEGFEDFTGGVTEWYELRKAPSDLYQIILKALERGSLLGCSIDISSVLDMEAITFKKLVKGHAYSVTGAKQVNYRGQVVSLIRMRNPWGEVEWTGAWSDSSSEWNNVDPYERDQLRVKMEDGEFWMSFRDFMREFTRLEICNLTPDALKSRTIRKWNTTLYEGTWRRGSTAGGCRNYPATFWVNPQFKIRLDETDDPDDYGDRESGCSFVLALMQKHRRRERRFGRDMETIGFAVYEVPPELVGQPAVHLKRDFFLANASRARSEQFINLREVSTRFRLPPGEYVVVPSTFEPNKEGDFVLRFFSEKSAGTVELDDQIQANLPDEQVLSEEEIDENFKALFRQLAGEDMEISVKELRTILNRIISKHKDLRTKGFSLESCRSMVNLMDRDGNGKLGLVEFNILWNRIRNYLSIFRKFDLDKSGSMSAYEMRMAIESAGFKLNKKLYELIITRYSEPDLAVDFDNFVCCLVRLETMFRFFKTLDTDLDGVVTFDLFKWLQLTMFA
Calpain small subunit 1: MFLVNSFLKGGGGGGGGGGGLGGGLGNVLGGLISGAGGGGGGGGGGGGGGGGGGGGTAMRILGGVISAISEAAAQYNPEPPPPRTHYSNIEANESEEVRQFRRLFAQLAGDDMEVSATELMNILNKVVTRHPDLKTDGFGIDTCRSMVAVMDSDTTGKLGFEEFKYLWNNIKRWQAIYKQFDTDRSGTICSSELPGAFEAAGFHLNEHLYNMIIRRYSDESGNMDFDNFISCLVRLDAMFRAFKSLDKDGTGQIQVNIQEWLQLTMYS
As for B1, the “degradation of wild type ABCA1” value in assay [8] (permeabilized 293 cells, purified μ-calpain) is given as “efficient degradation”. For the same molecule, the “degradation of ABCA1delPEST” value in assay [10] was “no appreciable degradation”.
